Experiments:
[1] = target: Cannabinoid receptor 1 (Homo sapiens, UniProt P21554); test: cAMP Assay; details: 37 °C
Procedure: (§1) CHO cells expressing human CB1 or CB2 receptors are seeded 17-24 hours prior to the experiment 50.000 cells per well in a black 96 well plate with flat clear bottom (Corning Costar #3904) in DMEM (Invitrogen No. 31331), 1×HT supplement, with 10% fetal calf serum and incubated at 5% CO2 and 37° C. in a humidified incubator. The growth medium was exchanged with Krebs Ringer Bicarbonate buffer with 1 mM IBMX and incubated at 30° C. for 30 min Compounds were added to a final assay volume of 100 ul and incubated for 30 min at 30° C. Using the cAMP-Nano-TRF detection kit the assay (Roche Diagnostics) was stopped by the addition of 50 ul lysis reagent (Tris, NaCl, 1.5% Triton X100, 2.5% NP40, 10% NaN3) and 50 ul detection solutions (20 uM mAb Alexa700-cAMP 1:1, and 48 uM Ruthenium-2-AHA-cAMP) and shaken for 2 h at room temperature. The time-resolved energy transfer is measured by a TRF reader (Evotec Technologies GmbH), equipped with a ND:YAG laser as excitation source. The plate is measured twice with the excitation at 355 nm and at the emission with a delay of 100 ns and a gate of 100 ns, total exposure time 10 s at 730 (bandwidth 30 nm) or 645 nm (bandwidth 75 nm), respectively. The FRET signal is calculated.

[2] = target: Cannabinoid receptor 2 (Homo sapiens, UniProt P34972); test: cAMP Assay; details: 37 °C
Procedure: as §1

Chain of Cannabinoid receptor 1 (P21554 whole entry): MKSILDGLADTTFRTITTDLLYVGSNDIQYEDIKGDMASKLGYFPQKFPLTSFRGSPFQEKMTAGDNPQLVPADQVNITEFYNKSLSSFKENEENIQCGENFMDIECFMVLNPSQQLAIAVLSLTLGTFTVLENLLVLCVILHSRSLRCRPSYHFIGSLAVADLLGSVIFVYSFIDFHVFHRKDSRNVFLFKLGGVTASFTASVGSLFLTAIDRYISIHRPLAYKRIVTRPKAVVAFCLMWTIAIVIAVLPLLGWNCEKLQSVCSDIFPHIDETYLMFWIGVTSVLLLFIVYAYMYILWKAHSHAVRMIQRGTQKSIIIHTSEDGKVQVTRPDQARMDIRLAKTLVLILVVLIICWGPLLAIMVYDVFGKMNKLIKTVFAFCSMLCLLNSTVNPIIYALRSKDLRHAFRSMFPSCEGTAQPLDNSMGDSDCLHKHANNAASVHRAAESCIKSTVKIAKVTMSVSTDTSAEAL
Chain of Cannabinoid receptor 2 (P34972 whole entry): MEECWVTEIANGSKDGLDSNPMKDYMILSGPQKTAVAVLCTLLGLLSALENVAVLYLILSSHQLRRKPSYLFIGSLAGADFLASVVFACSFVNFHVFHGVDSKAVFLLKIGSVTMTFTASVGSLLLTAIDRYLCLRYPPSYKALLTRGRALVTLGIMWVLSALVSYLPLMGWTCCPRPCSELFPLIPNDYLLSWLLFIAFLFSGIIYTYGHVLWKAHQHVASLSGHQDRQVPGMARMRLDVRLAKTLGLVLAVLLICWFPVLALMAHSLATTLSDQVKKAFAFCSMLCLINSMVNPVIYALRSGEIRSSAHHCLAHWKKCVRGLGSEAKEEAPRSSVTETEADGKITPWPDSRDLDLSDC

SMILES | EC50 [1] [µM] | EC50 [2] [nM]
O=C(c1ccc(C2CCCC2)c(OCC2CC2)n1)N1CCS(=O)(=O)CC1 [US9290451, 39] | > 10 | 303
O=C(c1ccc(C2CC2)c(-c2cccc(Cl)c2)n1)N1CCS(=O)(=O)CC1 [US9290451, 48] | > 10 | 477
CC(C)(CO)NC(=O)c1ccc(NC2CC2)c(OCC2CC2)n1 [US9290451, 159] | > 10 | 780
Cc1cnc(C(C)(C)NC(=O)c2ccc(N3CC(F)(F)C3)c(OCC3CC3)n2)s1 [US9290451, 353] | > 10 | 4.9
